Test results taken from ChEMBL document CHEMBL4393664, “2,4-Disubstituted quinazolines targeting breast cancer cells via EGFR-PI3K” (Eur J Med Chem, 2019).

Assays:
MDA-MB-231 [1] = test: Cell cycle arrest in human MDA-MB-231 cells assessed as accumulation at G1 phase at 3 uM after 24 hrs by propidium iodide/RNase A staining-based flow cytometric analysis (reference value: 49.17%); format: functional
MDA-MB-231 [2] = test: Cell cycle arrest in human MDA-MB-231 cells assessed as accumulation at G1 phase at 6 uM after 24 hrs by propidium iodide/RNase A staining-based flow cytometric analysis (reference value: 49.17%); format: functional
MCF7 [3] = test: Cell cycle arrest in human MCF7 cells assessed as accumulation at G1 phase at 3 uM after 24 hrs by propidium iodide/RNase A staining-based flow cytometric analysis (reference value: 52.21%); format: functional
MDA-MB-231 [4] = test: Antimigratory activity against human MDA-MB-231 cells assessed as reduction in scratch healing after 72 hrs by microscopy based scratch wound assay; format: functional, cell-based
MDA-MB-231 [5] = test: Induction of apoptosis in human MDA-MB-231 cells assessed as early apoptotic cells at 4 uM after 48 hrs by Annexin-V-FITC/propidium iodide staining based flow cytometry (reference value: 4.33%); format: functional
MDA-MB-231 [6] = test: Induction of apoptosis in human MDA-MB-231 cells assessed as early apoptotic cells at 6 uM after 48 hrs by Annexin-V-FITC/propidium iodide staining based flow cytometry (reference value: 4.33%); format: functional
MCF7 [7] = test: Induction of apoptosis in human MCF7 cells assessed as necrotic cells at 2 uM after 48 hrs by Annexin-V-FITC/propidium iodide staining based flow cytometry (reference value: 1.57%); format: functional
MCF7 [8] = test: Induction of apoptosis in human MCF7 cells assessed as viable cells at 6 uM after 48 hrs by Annexin-V-FITC/propidium iodide staining based flow cytometry (reference value: 91.1%); format: functional; settings: MCF7, 48 h, read-out: Activity
MCF7 [9] = test: Effect on total PI3K protein level in human MCF7 cells up to 12 uM after 8 hrs by Western blot analysis; format: ADME, cell-based; settings: mcf7, 8 h
[10] = target: Epidermal growth factor receptor (Homo sapiens) (UniProt P00533); test: Inhibition of EGFR phosphorylation at Y1068 residues in human MCF7 cells after 8 hrs by Western blot analysis; format: cell-based
Sequence of Epidermal growth factor receptor (Homo sapiens) (P00533 whole entry): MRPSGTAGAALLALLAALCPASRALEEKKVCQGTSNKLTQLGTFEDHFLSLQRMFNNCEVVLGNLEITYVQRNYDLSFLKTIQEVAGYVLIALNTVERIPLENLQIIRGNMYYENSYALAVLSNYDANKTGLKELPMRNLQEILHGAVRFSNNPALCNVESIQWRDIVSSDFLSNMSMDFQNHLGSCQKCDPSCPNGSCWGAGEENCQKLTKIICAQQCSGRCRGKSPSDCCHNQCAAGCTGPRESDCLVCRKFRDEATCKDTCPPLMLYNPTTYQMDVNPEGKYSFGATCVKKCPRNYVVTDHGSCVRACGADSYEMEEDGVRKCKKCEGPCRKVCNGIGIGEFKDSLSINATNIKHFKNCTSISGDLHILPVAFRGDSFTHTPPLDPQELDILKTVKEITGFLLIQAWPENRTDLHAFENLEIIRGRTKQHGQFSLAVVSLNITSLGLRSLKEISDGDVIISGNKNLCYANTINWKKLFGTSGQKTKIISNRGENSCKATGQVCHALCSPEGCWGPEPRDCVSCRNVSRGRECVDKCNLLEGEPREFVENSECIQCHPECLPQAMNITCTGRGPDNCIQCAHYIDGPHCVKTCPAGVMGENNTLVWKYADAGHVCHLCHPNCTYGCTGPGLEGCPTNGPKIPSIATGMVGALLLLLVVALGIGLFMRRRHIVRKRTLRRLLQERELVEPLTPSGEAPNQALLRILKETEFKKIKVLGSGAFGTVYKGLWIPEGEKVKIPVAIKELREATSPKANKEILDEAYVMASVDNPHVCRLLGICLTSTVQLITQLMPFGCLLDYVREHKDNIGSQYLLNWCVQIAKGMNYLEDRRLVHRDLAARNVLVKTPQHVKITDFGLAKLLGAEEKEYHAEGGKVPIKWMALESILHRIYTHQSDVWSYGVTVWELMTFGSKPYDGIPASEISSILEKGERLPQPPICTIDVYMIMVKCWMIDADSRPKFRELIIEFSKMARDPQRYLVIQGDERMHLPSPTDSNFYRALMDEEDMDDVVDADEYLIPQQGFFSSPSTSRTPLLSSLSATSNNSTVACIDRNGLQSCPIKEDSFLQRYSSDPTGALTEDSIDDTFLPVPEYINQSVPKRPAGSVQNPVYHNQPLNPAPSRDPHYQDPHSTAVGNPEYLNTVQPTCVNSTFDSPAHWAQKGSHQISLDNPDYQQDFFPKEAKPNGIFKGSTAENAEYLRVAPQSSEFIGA

With `FC(F)(F)c1ccc(CSc2nc(Nc3ccc(C(F)(F)F)cc3)c3ccccc3n2)cc1` the Activity (MDA-MB-231 [1]) was 53%, the Activity (MDA-MB-231 [2]) was 60.7% and the Activity (MCF7 [3]) was 59.18%. For the same compound, the Activity (MDA-MB-231 [4]) was “Dose-dependent effect”, the Activity (MDA-MB-231 [5]) was 10.6% and the Activity (MDA-MB-231 [6]) was 10.4%. For the same compound, the Activity (MCF7 [7]) was 3.28%, the viability at 6 µM (MCF7 [8]) was 70.5% and the Activity (MCF7 [9]) was “Non-Toxic”. The inhibition [10] was “Dose-dependent effect”.
